We go through 37 compounds from patent US7045532B2 (Millennium Pharmaceuticals, Inc., priority 1999, dated 2006).

For this assay, the target named is T1, ACE-2 (Homo sapiens, UniProt Q9BYF1).
T1 construct: a stop codon inserted after the serine immediately preceding the transmembrane domain; made in house; host or cells: CHO K1 cells (transient transfection, purified from conditioned medium)
Briefly: ACE-2 Competitive Substrate Assay (ACS Assay). It is filed as biochemical.

The mark [1] stands for this setting: Ki class, compounds tested in 5% DMSO, 12 compound concentrations, Ki=Kiapp/(1+[S]/Km), read-out: Human ACE-2 Activity.
Where [2] appears, read: Table 3, very good ACE-2 inhibiting compounds, species not given, read-out: ACE-2 Activity, Ki.

Read-outs that look alike come from different tables or passages of the source.

T1 sequence (Q9BYF1 18-740 limits assumed): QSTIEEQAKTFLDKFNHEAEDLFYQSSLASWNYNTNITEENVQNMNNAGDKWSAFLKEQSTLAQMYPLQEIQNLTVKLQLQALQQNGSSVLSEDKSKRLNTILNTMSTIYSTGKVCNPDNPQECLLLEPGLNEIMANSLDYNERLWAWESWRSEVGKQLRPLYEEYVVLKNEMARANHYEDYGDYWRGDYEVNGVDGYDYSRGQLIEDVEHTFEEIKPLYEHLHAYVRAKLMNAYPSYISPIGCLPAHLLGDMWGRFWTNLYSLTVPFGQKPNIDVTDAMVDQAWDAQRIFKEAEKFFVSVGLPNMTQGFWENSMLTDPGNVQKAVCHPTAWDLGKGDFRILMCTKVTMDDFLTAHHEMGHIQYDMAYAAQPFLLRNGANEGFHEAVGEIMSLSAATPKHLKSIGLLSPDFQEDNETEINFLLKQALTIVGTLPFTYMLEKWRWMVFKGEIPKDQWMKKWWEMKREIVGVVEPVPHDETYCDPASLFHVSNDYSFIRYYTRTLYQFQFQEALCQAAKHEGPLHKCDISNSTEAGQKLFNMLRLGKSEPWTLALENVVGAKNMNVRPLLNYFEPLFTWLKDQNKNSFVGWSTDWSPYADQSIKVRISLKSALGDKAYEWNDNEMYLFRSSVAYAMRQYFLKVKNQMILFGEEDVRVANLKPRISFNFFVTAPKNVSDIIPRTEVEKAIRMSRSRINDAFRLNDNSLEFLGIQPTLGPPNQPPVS

Turning to `CC(C)C[C@H](N[C@@H](Cc1cncn1Cc1cc(F)cc(F)c1)C(=O)O)C(=O)O` [NJ, (S,S) 2-{1-Carboxy-2-[3-(3,5-difluoro-benzyl)-3H-imidazol-4-yl]-ethylamino}-4-methyl-pentanoic acid], the Ki runs as follows: under setting [1], less than 100 nM; under setting [2], less than 50 nM. With `CC(C)C[C@H](N[C@@H](Cn1ccn(CCc2ccc(F)cc2)c1=O)C(=O)O)C(=O)O` [NK, 2-(1-Carboxy-2-[3-[2-(4-fluoro-phenyl)-ethyl]-2-oxo2,3-dihydro-imidazol-1-yl)-ethylamino]-4-methyl-pentanoic acid], the Ki under setting [1] lay within 100 to 500 nM.

For the compound `CC(C)C[C@H](N[C@@H](Cn1ccn(CC2CCCCC2)c1=O)C(=O)O)C(=O)O` [NL, 2-[1-Carboxy-2-(3-cyclohexylmethyl-2-oxo-2,3-dihydro-imidazol-1-yl)-ethylamino]-4-methyl-pentanoic acid], the Ki under setting [1] lay within 100 to 500 nM. Consider `CC(C)C[C@H](N[C@@H](Cc1cncn1Cc1cc(Cl)cc(Cl)c1)C(=O)O)C(=O)OC(C)(C)C` [NM, 2-[1-Carboxy-2-[3-(3,5-dichloro-benzyl)-3H-imidazol-4-yl]-ethylamino)4-methyl-pentanoic acidtert-butyl ester], for which the Ki under setting [1] was less than 100 nM and the Ki under setting [2] is less than 50 nM.

For `Cc1ccc(-c2ccc(C[C@H](N[C@@H](CC(C)C)C(=O)O)C(=O)O)o2)cc1` [NO, (S,S)-2[1-Carboxy-2-(5-p-tolyl-furan-2-yl)-ethylamino]-4-methyl-pentanoic acid], the Ki under setting [1] is 100 to 500 nM.

For the compound `CC(C)C[C@H](N[C@@H](Cn1ccn(CCc2cccc(F)c2)c1=O)C(=O)O)C(=O)O` [NP, 2-(1-Carboxy-2-{3-[2-(3-fluoro-phenyl)-ethyl]-2-oxo2,3-dihydro-imidazol-1-yl]-ethylamino)-4-methyl-pentanoic acid], under setting [1], the Ki is 100 to 500 nM. The same measure, in the same setting: under `CC(C)C[C@H](N[C@@H](Cn1ccn(Cc2ccc(F)cc2)c1=O)C(=O)O)C(=O)O` [NQ, 2-{1-Carboxy-2-[3-(4-fluoro-benzyl)-2-oxo-2,3-dihydro-imidazol-1-yl]-ethylamino}-4-methyl-pentanoic acid] stands 100 to 500 nM; under `CC(C)C[C@H](N[C@@H](Cc1ccc(-c2ccccc2)o1)C(=O)O)C(=O)O` [NR, (S,S)-2-[1-Carboxy-2-(5-phenyl-furan-2-yl)-ethylamino]-4-methyl-pentanoic acid], 100 to 500 nM; under `CC(C)C[C@H](N[C@@H](Cc1ccc(-c2cc(Cl)cc(Cl)c2)o1)C(=O)O)C(=O)O` [NS, (S,S)-2-{1-Carboxy-2-[5-(3,5-dichlorophenyl)-furan-2-yl]-ethylamino}-4-methyl-pentanoic acid], 100 to 500 nM. On the same count and under the same terms, under `Cc1cc(C)cc(-c2ccc(C[C@H](N[C@@H](CC(C)C)C(=O)O)C(=O)O)o2)c1` [NT, (S,S)-2-{1-Carboxy-2-[5-(3,5-dimethyl-phenyl)-furan-2-yl]-ethylamino}-4-methyl-pentanoic acid] stands 100 to 500 nM. Same read-out and setting: under `CC(C)C[C@H](N[C@@H](Cc1ccc(-c2cc(F)cc(F)c2)o1)C(=O)O)C(=O)O` [NU, (S,S)-2-{1-Carboxy-2-[5-(3,5-difluoro-phenyl)-furan-2-yl]-ethylamino}-4-methyl-pentanoic acid] stands greater than 500 nM; under `CC(C)C[C@H](N[C@@H](Cc1ccc(-c2ccsc2)o1)C(=O)O)C(=O)O` [NV, (S,S)-2-[1-Carboxy-2-(5-thiophen-3-yl-furan-2-yl)-ethylamino]-4-methyl-pentanoic acid], greater than 500 nM. `Cc1ccc2nc(NC(=O)C[C@H](N[C@@H](CC(C)C)C(=O)O)C(=O)O)sc2c1` [NW, 2-[1-Carboxy-2-(6-methyl-benzothiazol-2-ylcarbamoyl)-ethylamino]-4-methyl-pentanoic acid]: the Ki runs as follows: under setting [1], 100 to 500 nM; under setting [2], less than 50 nM. For `CC(C)C[C@H](N[C@@H](Cc1ccc(O)cc1)C(=O)O)C(=O)O` [NX, 2-[1-Carboxy-2-(4-hydroxy-phenyl)-ethylamino]-4-methyl-pentanoic acid], the Ki under setting [1] was greater than 500 nM. Regarding `CC(C)C[C@H](N[C@@H](Cc1cccc(OCc2cc(Cl)cc(Cl)c2)c1)C(=O)O)C(=O)O` [NY, 2-[1-Carboxy-2-[3-(3,5-dichloro-benzyloxy)-phenyl]-ethylamino]-4-methyl-pentanoic acid], the Ki was less than 100 nM under setting [1] and 50 to 100 nM under setting [2]. Consider `CC(C)C[C@H](N[C@@H](Cc1cccc(OCc2ccncc2)c1)C(=O)O)C(=O)O` [NZ, S,S-2-{1-Carboxy-2-[3-(pyridin-4-ylmethoxy)-phenyl]-ethylamino}-4-methyl pentanoic acid], for which the Ki under setting [1] is greater than 500 nM. On to `CC(N[C@@H](Cc1ccccc1)C(=O)O)C(=O)O` (stereo partly drawn) [O, 2-(1-Carboxy-ethylamino)-3-phenyl-propionic acid], for which the Ki (Ki class, compounds tested in 5% DMSO, 12 concentrations, read-out: Human ACE-2 Activity) is greater than 500 nM. Take `Cc1cc(C)cc(COc2cccc(C[C@H](N[C@@H](CC(C)C)C(=O)O)C(=O)O)c2)c1` [OA, 2-[1-Carboxy-2-[3-(3,5-dimethyl-benzyloxy)-phenyl]-ethylamino]-4-methyl-pentanoic acid]: the Ki under setting [1] is greater than 500 nM. As for `CC(C)C[C@H](N[C@@H](Cc1cccc(OCc2ccc(Cl)cc2)c1)C(=O)O)C(=O)O` [OB, 2-[1-Carboxy-2-[3-(4-chloro-benzyloxy)-phenyl)-ethylamino]-4-methyl-pentanoic acid], the Ki under setting [1] lay within 100 to 500 nM.

Turning to `CC(C)CC(NC(Cc1cccc(OCc2ccc(C(F)(F)F)cc2C(F)(F)F)c1)C(=O)O)C(=O)O` (stereo not drawn) [OC, 2-{2-[3-(2,4-Bis-trifluoromethyl-benzyloxy)-phenyl]-1-carboxy-ethylamino}-4-methyl-pentanoic acid], the Ki under setting [1] is greater than 500 nM. The same measure, in the same setting: next, `CC(C)C[C@H](N[C@@H](Cc1ccn(-c2ccccc2)n1)C(=O)O)C(=O)O` [OD, 2-[1-carboxy-2-(1phenyl-1H-pyrazol-3-yl)-ethylamino]-4-methyl-pentanoic acid]: 100 to 500 nM. For the compound `CC(C)C[C@H](N[C@@H](Cn1ccn(Cc2cccc(Cl)c2)c1=O)C(=O)O)C(=O)O` [OE, (S,S)-2-{1-Carboxy-2-[3-(3-chloro-benzyl)-2-oxo-2,3-dihydro-imidazol-1-yl]-ethylamino}-4-methyl-pentanoic acid], the Ki was less than 100 nM under setting [1] and less than 50 nM under setting [2].

Turning to `CC(C)C[C@H](N[C@@H](Cc1ccc(Cc2cc(Cl)cc(Cl)c2)cc1)C(=O)O)C(=O)O` [OF, (S,S)-2-{1-Carboxy-2-[4-(3,5-dichloro-benzyl)-phenyl]-ethylamino}-4-methyl-pentanoic acid], the Ki under setting [1] was greater than 500 nM. For the compound `CC(C)C[C@H](N[C@@H](Cc1ccc(Cc2ccccc2)cc1)C(=O)O)C(=O)O` [OG, (S,S)-2-[2-(4-Benzyl-phenyl)-1-carboxy-ethylamino]-4-methyl-pentanoic acid], the Ki by setting is: under setting [1], less than 100 nM; under setting [2], 50 to 100 nM. Consider `CC(C)C[C@H](N[C@@H](CC(=O)Nc1nc(-c2ccccc2)cs1)C(=O)O)C(=O)O` [OH, (S,S)-2-[1-Carboxy-2-(4-phenyl-thiazol-2-ylcarbamoyl)-ethylamino]-4-methyl-pentanoic acid], for which the Ki under setting [1] was greater than 500 nM. Same read-out and setting: under `COc1ccc(-c2ccc(C[C@H](N[C@@H](CC(C)C)C(=O)O)C(=O)O)o2)cc1` [OI, (S,S)-2-{1-Carboxy-2-[5-(4-methoxy-phenyl)-furan-2-yl]-ethylamino}-4-methyl-pentanoic acid] stands 100 to 500 nM; under `CC(C)C[C@H](N[C@@H](Cc1ccc(-c2ccc3c(c2)OCO3)o1)C(=O)O)C(=O)O` [OJ, (S,S)-2-[2-(5-Benzo[1,3]dioxol-5-yl-furan-2-yl)-1-carboxy-ethylamino]-4-methyl-pentanoic acid], 100 to 500 nM. As to `CC(C)C[C@H](N[C@@H](Cc1ccc(-c2cccc3ccccc23)o1)C(=O)O)C(=O)O` [OK], the Ki under setting [1] lay in the range of 100 to 500 nM. Turning to `CC(C)C[C@H](N[C@@H](Cc1ccc(-c2ccc(Cl)cc2)o1)C(=O)O)C(=O)O` [OL, (S,S)-2-{1-Carboxy-2-[5-(4-chloro-phenyl)-furan-2-yl]-ethylamino}-4-methyl-pentanoic acid], under setting [1], the Ki was greater than 500 nM. On the same count and under the same terms, under `CC(C)C[C@H](N[C@@H](Cc1ccc(-c2ccc(C(F)(F)F)cc2)o1)C(=O)O)C(=O)O` [OM, (S,S)-2-{1-Carboxy-2-[5-(4-trifluoromethyl-phenyl)-furan-2-yl]-ethylamino}-4-methyl-pentanoic acid] stands greater than 500 nM. Regarding `CC(C)COc1cccc(C[C@H](N[C@@H](CC(C)C)C(=O)O)C(=O)O)c1` [ON, 2-[1-Carboxy-2-(3-isobutoxy-phenyl)-ethylamino]-4-methyl-pentanoic acid], the Ki under setting [1] is greater than 500 nM. `CC(C)C[C@H](N[C@@H](Cc1cccc(OCc2cccc(Cl)c2)c1)C(=O)O)C(=O)O` [OO, S,S-2-{1-Carboxy-2-[3-(3-chloro-benzyloxy)-phenyl]-ethylamino}-4-methyl-pentanoic acid]: the Ki by setting is: under setting [1], less than 100 nM; under setting [2], 50 to 100 nM. Consider `CC(C)C[C@H](N[C@@H](Cc1cccc(OCc2ccccc2Cl)c1)C(=O)O)C(=O)O` [OP, S,S-2-{1-Carboxy-2-[3-(2-chloro-benzyloxy)-phenyl]-ethylamino}-4-methyl-pentanoic acid], for which the Ki under setting [1] is greater than 500 nM. In the case of `CC(C)C[C@H](N[C@@H](CCc1ccc(OCc2ccccc2)cc1)C(=O)O)C(=O)O` [OQ, (S,S) 2-[3-(4-Benzyloxy-phenyl)-1-carboxy-propylamino]-4-methyl-pentanoic acid], the Ki under setting [1] lay in the range of 100 to 500 nM. With `CC(C)C[C@H](N[C@@H](Cc1ccn(-c2ccccc2)n1)C(=O)OC(C)(C)C)C(=O)O` [OR], under setting [1], the Ki was greater than 500 nM. The same measure, in the same setting: next, `CC(C)C[C@H](N[C@@H](Cc1ccc(-c2cccc(Cl)c2)o1)C(=O)O)C(=O)O` [OS, (S), (S)-2-{1-Carboxy-2-[5-(3-chloro-phenyl)-furan-2-yl]-ethylamino}-4-methyl-pentanoic acid]: greater than 500 nM. Regarding `CC(C)C[C@H](N[C@@H](Cn1ccn(Cc2cccc(F)c2)c1=O)C(=O)O)C(=O)O` [OT, 2-{1-Carboxy-2-[3-(3-fluoro-benzyl)-2-oxo-2,3-dihydro-imidazol-1-yl]-ethylamino]-4-methyl-pentanoic acid], the Ki is less than 100 nM under setting [1] and 50 to 100 nM under setting [2].
